Data as given in patent US6620834B1, “Medicinal compositions for treating colorectal cancer” (Hisamitsu Pharmaceutical Co., Inc., priority 1999, dated 2003).

System: Yoshida's sarcoma
Test: liver metastasis inhibitory effect in Yoshida's sarcoma rat model bearing a colorectal cancer
Assay type: in vivo
Conditions: Donryu rats, Yoshida's sarcoma injected to sigmoid subserous; intra-colon administration for 5 days, autopsy day 6; versus control group
Description: The solution was prepared in which pravastatin and aspirin were mixed in the mixing ratio below, and the pharmacological evaluation was carried out in the liver metastasis model of rat colorectal cancer.
The liver metastasis inhibitory effect was evaluated in the following procedure by use of the mix solution prepared in the example 1.
Donryu strain rats (8 weeks old) were used. Under a sodium pentobarbital anesthesia a catheter was inserted from the ileocecum into the colon, and the plug was put out from the back part and fixed. At the same time Yoshida's sarcoma (1.5×10^6cells/30 μl/rat) was injected to the sigmoid subserous.
The mix solution prepared in the example 1 was administered intra-colon or orally for 5 days from the next day after the surgery, and at day 6 a pathologic autopsy was made.
When the test on day 6 was finished, rats were killed by bleeding for a pathologic autopsy. The liver was isolated from each individual, fixed by a neutral buffered formalin solution, and a tissue section was then prepared to obtain histopathological findings. The metastasis inhibitory ratio was calculated comparing with the engraftment ratio of the cancer cells in the control group.

Structure (SMILES): CC(=O)Oc1ccccc1C(=O)O [aspirin, Aspirin]
- liver metastasis inhibitory effect: hardly observed
